The text below walks through data of article PMC7933930, “Development of a small molecule that corrects misfolding and increases secretion of Z α1‐antitrypsin” (EMBO Molecular Medicine, 2021).

The structures appear in SMILES notation.

One assay addresses Histamine H1 (Homo sapiens, UniProt P35367). Kind of assay: Off‐target panel: Histamine H1. The assay is classed as cell-based. The conditions noted are these: Antagonist, read-out: Mean (PXC50). The method, then:
GSK716 selectivity and PK properties were profiled in order to investigate the suitability of GSK716 for progression into in vivo studies and the potential for taking it forward as a clinical candidate for testing in humans. Since GSK716 results in loss of inhibitory activity of α1‐antitrypsin, the effect of the compound was assessed on other closely related serpins. […] Furthermore, there were no off‐target effects in a panel of assays considered predictive of known safety liabilities that precluded further development of GSK716 (Table EV1).

For assay [1], the system named is Z α1‐antitrypsin polymers. Kind of assay: Liver polymer load in Z α1‐antitrypsin transgenic mice (2C1 immunohistochemistry). The assay is classed as in vivo, mouse. Conditions: 100 mg/kg three times a day for 20 days, versus vehicle. The method, then: Since GSK716 blocks polymer formation in cells, we explored the effect of dosing GSK716 on liver polymer levels. […] GSK716 was dosed at 100 mg/kg three times a day for 20 days. […] Liver polymer levels were investigated by staining with 2C1 anti‐polymer monoclonal antibody and were scored blind by a pathologist or by quantification using an algorithm to measure all areas of positive staining (Fig EV1). There was no difference observed in total liver polymer load when assessed by manual or quantitative scoring (Fig 6B and C). There was no significant fibrosis in any of the liver sections. Intrahepatic α1‐antitrypsin was also assessed by ELISA. […] Treatment with GSK716 increased the monomer measured in liver homogenate by approx. fourfold in keeping with the changes seen in blood.
Formalin‐fixed, paraffin‐embedded livers from all mice were sectioned and stained with haematoxylin and eosin (H&E) and periodic acid Schiff (PAS) with diastase to examine tissue quality and the presence of diastase‐resistant polymer inclusions, respectively. […] Representative sections of liver from each mouse were blindly evaluated by a Board‐Certified Veterinary Pathologist and ranked in order of polymer content. A semi‐automated image analysis solution was developed to quantify total polymer content (Fig EV1). […]

A further assay concerns the target Z α1‐antitrypsin (Homo sapiens, UniProt P01009, E366K). Kind of assay: Association kinetics by intrinsic tryptophan fluorescence (stopped flow), Z α1‐antitrypsin. The assay is classed as binding. Also on record: purified from the plasma of Z α1‐antitrypsin homozygotes; from tissue; host or cells: human plasma of Z α1-antitrypsin homozygotes. The source says: The shape of the curves and native mass spectrometry (not shown) are consistent with a single high‐affinity compound binding site. No binding of the fluorescent derivative to polymers of Z α1‐antitrypsin was observed, indicating conformational selectivity for the monomeric protein (Fig 1D). The rate of interaction of the compound with the target was monitored through changes in intrinsic tryptophan fluorescence (Dafforn et al, 1999); this property was used to determine the second‐order association rate constants for GSK716 binding to Z (4.1 × 10^4 M^−1 s^−1) and M α1‐antitrypsin (2.1 × 10^2 M^−1 s^−1; Fig 1E and F). […] Therefore, the selectivity of the compound for Z over M α1‐antitrypsin is dominated by the difference in the rate of association rather than dissociation.
Kinetic parameters of GSK716 binding to M, Z, S (Glu264Val) and Baghdad (Ala336Pro) (Haq et al, 2016) α1‐antitrypsin were measured by detecting intrinsic tryptophan fluorescence of the protein (excitation at 280 nm and detection of emission at 320 nm) on a stopped flow apparatus (Applied Photophysics) (Kim & Yu, 1996; Dafforn et al, 1999). A competition assay for binding to M α1‐antitrypsin and Z α1‐antitrypsin and Z α1‐antitrypsin polymers (Lomas et al, 1993; Irving et al, 2011; Haq et al, 2013), based on an Alexa488‐labelled analogue of GSK716 (A488‐GSK716), was used to determine the binding affinity of test compounds.

Chain of Z α1‐antitrypsin (P01009 25-418 E366K): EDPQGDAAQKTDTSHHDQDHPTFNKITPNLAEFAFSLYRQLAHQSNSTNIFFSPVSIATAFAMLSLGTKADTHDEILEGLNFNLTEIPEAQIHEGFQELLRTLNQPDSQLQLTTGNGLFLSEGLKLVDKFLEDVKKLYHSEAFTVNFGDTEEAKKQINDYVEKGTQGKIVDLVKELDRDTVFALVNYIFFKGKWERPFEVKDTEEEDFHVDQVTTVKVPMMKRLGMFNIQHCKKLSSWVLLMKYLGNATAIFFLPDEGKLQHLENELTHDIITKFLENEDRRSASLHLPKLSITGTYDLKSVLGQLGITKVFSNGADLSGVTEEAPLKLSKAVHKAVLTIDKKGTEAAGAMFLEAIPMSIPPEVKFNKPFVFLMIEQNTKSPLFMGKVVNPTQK
Chain of Histamine H1 (P35367 whole entry): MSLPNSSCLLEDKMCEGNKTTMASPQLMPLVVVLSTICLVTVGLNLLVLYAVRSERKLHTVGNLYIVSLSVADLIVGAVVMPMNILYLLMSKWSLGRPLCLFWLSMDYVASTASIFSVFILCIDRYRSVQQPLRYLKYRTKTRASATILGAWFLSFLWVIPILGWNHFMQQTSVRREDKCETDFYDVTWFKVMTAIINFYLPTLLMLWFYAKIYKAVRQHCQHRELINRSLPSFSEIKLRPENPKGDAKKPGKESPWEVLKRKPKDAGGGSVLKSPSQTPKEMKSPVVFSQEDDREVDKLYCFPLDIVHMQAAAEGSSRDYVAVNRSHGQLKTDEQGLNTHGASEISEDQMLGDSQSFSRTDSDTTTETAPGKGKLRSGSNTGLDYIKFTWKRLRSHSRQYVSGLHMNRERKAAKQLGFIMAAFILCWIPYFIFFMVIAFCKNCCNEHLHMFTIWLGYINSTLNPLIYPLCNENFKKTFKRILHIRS

Take `CCC[C@@H](NC(=O)c1cccc2c1CC(=O)N2)[C@@H](O)c1cccc(F)c1C` [GSK716]: on Histamine H1, the IC50 was more than 25.1 µM. In addition, in assay [1], the “total liver polymer load (manual or quantitative scoring of 2C1 staining)” value is “no difference”. Also, the “time of change in Z α1‐antitrypsin fluorescence on association (faster than dead‐time of the apparatus)” value at Z α1‐antitrypsin (10 µM GSK716, 0.2 mg/ml protein) is less than 10 s. For the same molecule, on Z α1‐antitrypsin (Z α1‐antitrypsin, calculated from association rate constant and affinity, read-out: first‐order dissociation rate constant), the koff is 6.1e-05 s⁻¹. In addition, the kon at Z α1‐antitrypsin (Z α1‐antitrypsin, read-out: second‐order association rate constant) is 41000 M⁻¹ s⁻¹.
